The target of the assay is T1, MST1 (Homo sapiens, UniProt Q13043).
T1 sequence (Q13043 1-487): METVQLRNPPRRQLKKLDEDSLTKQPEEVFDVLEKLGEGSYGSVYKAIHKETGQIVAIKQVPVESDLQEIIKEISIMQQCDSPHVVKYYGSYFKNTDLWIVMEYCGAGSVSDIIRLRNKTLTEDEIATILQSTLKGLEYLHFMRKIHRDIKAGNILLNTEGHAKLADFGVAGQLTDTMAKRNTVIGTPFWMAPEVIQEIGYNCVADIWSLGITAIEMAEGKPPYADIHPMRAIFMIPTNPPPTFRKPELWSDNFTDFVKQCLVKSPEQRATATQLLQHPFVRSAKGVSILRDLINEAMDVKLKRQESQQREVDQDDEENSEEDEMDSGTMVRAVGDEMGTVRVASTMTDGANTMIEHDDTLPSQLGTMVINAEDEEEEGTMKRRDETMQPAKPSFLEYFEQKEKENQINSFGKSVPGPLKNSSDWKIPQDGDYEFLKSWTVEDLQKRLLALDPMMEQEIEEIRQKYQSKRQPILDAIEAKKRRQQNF
Kind of assay: In vitro measurement of MST1 inhibition (Z′-Lyte kinase assay). It counts as biochemical.

[1] abbreviates: 1 μM ATP, read-out: IC50 (μM) 1 μM ATP.
Setting [2] is: 50 μM ATP, read-out: IC50 (μM) 50 μM ATP.

Where two headings read alike, the source gives them in different places.

Turning to `Nc1ncc(-c2ccc(S(=O)(=O)NC3CC3)cc2)nc1-c1ccc2c(c1)CCNC2=O` [4-(5-amino-6-(1-oxo-1,2,3,4-tetrahydroisoquinolin-6-yl)pyrazin-2-yl)-N-cyclopropylbenzenesulfonamide], the half-maximal inhibitory concentration (IC50) under setting [1] is less than 0.01 µM and the IC50 under setting [2] was less than 0.01 µM. As for `CN(C1CCC1)S(=O)(=O)c1ccc(-c2cnc(N)c(-c3ccc4c(c3)CCNC4=O)n2)cc1` [4-(5-amino-6-(1-oxo-1,2,3,4-tetrahydroisoquinolin-6-yl)pyrazin-2-yl)-N-cyclobutyl-N-methylbenzenesulfonamide], the IC50 under setting [1] is less than 0.01 µM and the IC50 under setting [2] is less than 0.01 µM. Turning to `CN(C1CC1)S(=O)(=O)c1ccc(-c2cnc(N)c(-c3ccc4c(c3)CCCNC4=O)c2)cc1` [4-(6-amino-5-(1-oxo-2,3,4,5-tetrahydro-1H-benzo[c]azepin-7-yl)pyridin-3-yl)-N-cyclopropyl-N-methylbenzenesulfonamide], the IC50 was less than 0.01 µM under setting [1] and less than 0.01 µM under setting [2]. With `CN(C1CC1)S(=O)(=O)c1ccc(-c2cnc(N)c(-c3ccc4c(c3)CCNC4=O)n2)cn1` [5-(5-amino-6-(1-oxo-1,2,3,4-tetrahydroisoquinolin-6-yl)pyrazin-2-yl)-N-cyclopropyl-N-methylpyridine-2-sulfonamide], the IC50 is, setting by setting: under setting [1], less than 0.05 µM; under setting [2], less than 0.01 µM.

With `CN(C)C(C)(C)c1ccc(-c2cnc(N)c(-c3ccc4c(c3)CCNC4=O)c2)cc1` [6-(2-amino-5-(4-(2-(dimethylamino)propan-2-yl)phenyl)pyridin-3-yl)-3,4-dihydroisoquinolin-1(2H)-one], the IC50 under setting [1] is less than 0.05 µM and the IC50 under setting [2] is less than 0.01 µM. As for `N#CCn1cc(-c2cnc(N)c(-c3ccc4c(c3)CCNC4=O)n2)cn1` [2-(4-(5-amino-6-(1-oxo-1,2,3,4-tetrahydroisoquinolin-6-yl)pyrazin-2-yl)-1H-pyrazol-1-yl)acetonitrile], the IC50 runs as follows: under setting [1], less than 0.15 µM; under setting [2], less than 0.05 µM. Turning to `Nc1ncc(-c2ccc(S(=O)(=O)CC3CC3)cc2)nc1-c1ccc2c(c1)CCNC2=O` [6-(3-amino-6-(4-((cyclopropylmethyl)sulfonyl)phenyl)pyrazin-2-yl)-3,4-dihydroisoquinolin-1(2H)-one], the IC50 by setting is: under setting [1], less than 0.05 µM; under setting [2], less than 0.01 µM. For the compound `N#CCc1ccc(-c2cnc(N)c(-c3ccc4c(c3)CCNC4=O)n2)s1` [2-(5-(5-amino-6-(1-oxo-1,2,3,4-tetrahydroisoquinolin-6-yl)pyrazin-2-yl)thiophen-2-yl)acetonitrile], the IC50 was less than 0.05 µM under setting [1] and less than 0.01 µM under setting [2].

As for `CC(C)(C#N)c1ccc(-c2cnc(N)c(-c3ccc4c(c3)CCNC4=O)n2)cc1` [2-(4-(5-amino-6-(1-oxo-1,2,3,4-tetrahydroisoquinolin-6-yl)pyrazin-2-yl)phenyl)-2-methylpropanenitrile], the IC50 by setting is: under setting [1], less than 0.05 µM; under setting [2], less than 0.01 µM.

Consider `Cn1cc(-c2cnc(N)c(-c3ccc4c(c3)CCNC4=O)n2)cn1` [6-(3-amino-6-(1-methyl-1H-pyrazol-4-yl)pyrazin-2-yl)-3,4-dihydroisoquinolin-1(2H)-one], for which the IC50 under setting [1] is less than 0.15 µM and the IC50 under setting [2] is less than 0.05 µM. Take `CCN(CC)S(=O)(=O)c1ccc(-c2cnc(N)c(-c3ccc4c(=O)[nH]oc4c3)c2)cc1` [4-(6-amino-5-(3-oxo-2,3-dihydrobenzo[d]isoxazol-6-yl)pyridin-3-yl)-N,N-diethylbenzenesulfonamide]: the IC50 under setting [2] was less than 0.15 µM. For `CN(C1CC1)S(=O)(=O)c1ccc(-c2cnc(N)c(-c3ccc4c(c3)OCCNC4=O)n2)cc1` [4-(5-amino-6-(5-oxo-2,3,4,5-tetrahydrobenzo[f][1,4]oxazepin-8-yl)pyrazin-2-yl)-N-cyclopropyl-N-methylbenzenesulfonamide], the concentration for half-maximal inhibition (IC50) by setting is: under setting [1], less than 0.01 µM; under setting [2], less than 0.01 µM.

Consider `CN(C1CC1)S(=O)(=O)c1ccc(-c2cnc(N)c(-c3ccc4c(c3)NCCNC4=O)c2)cc1` [4-(6-amino-5-(5-oxo-2,3,4,5-tetrahydro-1H-benzo[e][1,4]diazepin-8-yl)pyridin-3-yl)-N-cyclopropyl-N-methylbenzenesulfonamide], for which the IC50 was less than 0.01 µM under setting [1] and less than 0.01 µM under setting [2]. Turning to `CN(CC(F)F)S(=O)(=O)c1ccc(-c2cnc(N)c(-c3ccc4c(c3)CCNC4=O)n2)cc1` [4-(5-amino-6-(1-oxo-1,2,3,4-tetrahydroisoquinolin-6-yl)pyrazin-2-yl)-N-(2,2-difluoroethyl)-N-methylbenzenesulfonamide], the IC50 reads like this: under setting [1], less than 0.05 µM; under setting [2], less than 0.01 µM. As to `COCc1ccc(-c2cnc(N)c(C(=O)NC3CCCCC3)n2)cc1` [3-amino-N-cyclohexyl-6-(4-(methoxymethyl)phenyl)pyrazine-2-carboxamide], under setting [2], the IC50 was less than 0.15 µM.

In the case of `CN(C1CC1)S(=O)(=O)c1ccc(-c2cnc(N)c(-c3ccc4c(c3)CCCCC(=O)N4)c2)cc1` [4-(6-amino-5-(2-oxo-1,2,3,4,5,6-hexahydrobenzo[b]azocin-8-yl)pyridin-3-yl)-N-cyclopropyl-N-methylbenzenesulfonamide], the IC50 under setting [1] is less than 0.15 µM and the IC50 under setting [2] is less than 0.05 µM. In the case of `CCN(CC)S(=O)(=O)c1ccc(-c2cnc(N)c(-c3ccc(C(N)=O)c(F)c3)c2)cc1` [4-(2-amino-5-(4-(N,N-diethylsulfamoyl)phenyl)pyridin-3-yl)-2-fluorobenzamide], the IC50 under setting [2] was less than 0.05 µM.

For `N#CC1(c2ccc(-c3cnc(N)c(-c4ccc5c(c4)C4(CC4)NC5=O)n3)cc2)CCOCC1` [4-(4-(5-amino-6-(3′-oxospiro[cyclopropane-1,1′-isoindolin]-6′-yl)pyrazin-2-yl)phenyl)tetrahydro-2H-pyran-4-carbonitrile], the IC50 is, setting by setting: under setting [1], less than 0.05 µM; under setting [2], less than 0.01 µM. The matching figures for `[2H]C([2H])([2H])N(C([2H])([2H])[2H])S(=O)(=O)c1ccc(-c2cnc(N)c(-c3ccc4c(c3)CCNC4=O)n2)cc1` [4-(5-amino-6-(1-oxo-1,2,3,4-tetrahydroisoquinolin-6-yl)pyrazin-2-yl)-N,N-di(trideuteromethyl)benzenesulfonamide]: less than 0.01 µM and less than 0.01 µM.

On to `Nc1ncc(-c2ccc(S(=O)(=O)NC3CC3)cc2)cc1-c1ccc2c(c1)CCNC2=O` [4-(6-amino-5-(1-oxo-1,2,3,4-tetrahydroisoquinolin-6-yl)pyridin-3-yl)-N-cyclopropylbenzenesulfonamide], for which the half-maximal inhibitory concentration (IC50) by setting is: under setting [1], less than 0.01 µM; under setting [2], less than 0.01 µM. Consider `CN(C1CC1)S(=O)(=O)c1ccc(-c2cnc(N)c(-c3ccc4c(c3)CCNC4=O)c2)cn1` [6′-amino-N-cyclopropyl-N-methyl-5′-(1-oxo-1,2,3,4-tetrahydroisoquinolin-6-yl)-[3,3′-bipyridine]-6-sulfonamide], for which the IC50 is less than 0.01 µM under setting [1] and less than 0.01 µM under setting [2].

Consider `Nc1ncc(-c2ccc(S(=O)(=O)NC3CC3)cc2)cc1-c1ccc2c(c1)C1(CC1)CNC2=O` [4-(6-amino-5-(1′-oxo-2′,3′-dihydro-1′H-spiro[cyclopropane-1,4′-isoquinolin]-6′-yl)pyridin-3-yl)-N-cyclopropylbenzenesulfonamide], for which the IC50 was less than 0.01 µM under setting [1] and less than 0.01 µM under setting [2]. In the case of `N#CC1(c2ccc(-c3cnc(N)c(-c4ccc5c(=O)[nH]ccc5c4)n3)cc2)CC1` [1-(4-(5-amino-6-(1-oxo-1,2-dihydroisoquinolin-6-yl)pyrazin-2-yl)phenyl)cyclopropanecarbonitrile], the IC50 is, setting by setting: under setting [1], less than 0.05 µM; under setting [2], less than 0.01 µM. The like results for `N#Cc1ccc(-c2cnc(N)c(-c3ccc4c(c3)C3(CC3)CNC4=O)n2)cc1` [4-(5-amino-6-(1′-oxo-2′,3′-dihydro-1′H-spiro[cyclopropane-1,4′-isoquinolin]-6′-yl)pyrazin-2-yl)benzonitrile] were, in that order, less than 0.05 µM and less than 0.01 µM. The like results for `CC1(C#N)CCc2cc(-c3cnc(N)c(-c4ccc5c(c4)CCNC5=O)c3)ccc21` (stereo not drawn) [5-(6-amino-5-(1-oxo-1,2,3,4-tetrahydroisoquinolin-6-yl)pyridin-3-yl)-1-methyl-2,3-dihydro-1H-indene-1-carbonitrile] were, in that order, less than 0.15 µM and less than 0.01 µM. `CN(C1CC1)S(=O)(=O)c1ccc(-c2cnc(N)c(-c3ccc4c(c3)NCCNC4=O)n2)cc1` [4-(5-amino-6-(5-oxo-2,3,4,5-tetrahydro-1H-benzo[e][1,4]diazepin-8-yl)pyrazin-2-yl)-N-cyclopropyl-N-methylbenzenesulfonamide]: the IC50 by setting is: under setting [1], less than 0.01 µM; under setting [2], less than 0.01 µM. With `CCCOc1ccc(-c2cnc(N)c(-c3ccc(C(N)=O)cc3)c2)cc1` [4-(2-amino-5-(4-propoxyphenyl)pyridin-3-yl)benzamide], under setting [2], the 50% inhibitory concentration (IC50) is less than 0.15 µM. For `CCCN(C)S(=O)(=O)c1ccc(-c2cnc(N)c(-c3ccc4c(c3)CCNC4=O)n2)cc1Cl` [4-(5-amino-6-(1-oxo-1,2,3,4-tetrahydroisoquinolin-6-yl)pyrazin-2-yl)-2-chloro-N-methyl-N-propylbenzenesulfonamide], the IC50 is less than 0.01 µM under setting [1] and less than 0.01 µM under setting [2]. Consider `CN(C1CC1)S(=O)(=O)c1ccc(-c2cnc(N)c(-c3ccc4c(c3)CCCNC4=O)n2)cc1` [4-(5-amino-6-(1-oxo-2,3,4,5-tetrahydro-1H-benzo[c]azepin-7-yl)pyrazin-2-yl)-N-cyclopropyl-N-methylbenzenesulfonamide], for which the IC50 under setting [1] is less than 0.01 µM and the IC50 under setting [2] is less than 0.01 µM.

For the origin of these results see patent US8440652B2, “MST1 kinase inhibitors and methods of their use” (Lexicon Pharmaceuticals, Inc., priority 2011, dated 2013).
